Results reported in patent publication US20150290234A1, “TARGETED INTRACELLULAR DELIVERY OF ANTIVIRAL AGENTS” (BBB Holding B.V., priority 2007, published 2015).
≈ marks a conversion by molar mass, not a printed value. Where two headings read alike, the source gives them in different places.

Legend:
[1] = cited from earlier work
[2] = molecular target: diphtheria toxin receptor (DTR) expressed on LLC-PK1 cells (porcine kidney epithelial cells) (porcine) (UniProt Q01580); assay: cell-based or functional assay
viral DNA polymerase = settings: cited from earlier work
CMV-infected cells = settings: cited from earlier work
[3] = molecular target: T1, DTR expressed on LLC-PK1 cells (Sus scrofa, UniProt Q01580); assay: Receptor-specific cell uptake, fluorescence in cell lysate; type: cell-based, porcine; settings: LLC-PK1, 5 microgram per well, 2 hours
T1 construct: Cells with a known expression of the DTR were used from several species and origins; endogenous in cells; host or cells: LLC-PK1 (porcine kidney epithelial cells)
Experimental: (§1) Cells with a known expression of the DTR were used from several species and origins, including porcine kidney epithelial cells (LLC-PK1), bovine brain capillary endothelial cells (BCEC), monkey kidney fibroblast cells (COS-1), and human glioblastoma cells. In particular, LLC-PK1 cells were incubated for 1 h in 24-wells plates on 400 microliter DMEM+FCS supplemented with 100 microgram/ml heparin, before 5 microgram CRM197-FITC or HRP-FITC was added to the well. Two hours later the cells were washed 3 times and the cells were lysated in 100 microliter 0.1 N NaOH, and fluorescence was determined at 480/530 nm in a fluostar plate reader. Cell protein per well was determined with a Biorad DC assay and fluorescence in the cell lysate was calculated per mg cell protein. In a separate group of cells, an access of 100 microgram free CRM197 was added to the well, 30 minutes before the CRM197-FITC conjugate was added to the medium. […] In a separate set of experiments, LLC-PK1 cells were cultured in similar conditions on coverslips and exposed to CRM197-FITC, HRP-FITC or sodium fluorescein. After fixation and mounting with vectashield with DAPI for nuclear staining, the coverslips were analyzed on a fluorescence microscope and photographed. […] Identical results were found on BCEC, COS-1 and human glioblastoma cells, also after several time points (up to 24 hours after exposure).

LLC-PK1 cells [4] = assay: Cell uptake and localization on coverslips, fluorescence microscope; type: cell-based, porcine; settings: FIG. 1
Experimental: as §1

[5] = Biodistribution of FITC conjugates; settings: hamster, 90 minutes after i.v. injection, FIG. 4
[6] = Plasma pharmacokinetics of FITC-labelled protein after intravenous bolus; settings: hamster, i.v. 1 mg FITC-labelled protein, calculated sixty minutes after injection
influenza = settings: therapy started within 48 hours of the onset of symptoms; cited from earlier work
YFV = assay: microbe, parasite or virus in culture; type: cell-based; settings: Yellow fever virus, Vero, 120 h, read-out: EC50 for inhibition of RNA synthesis [EC50 RNA]
LLC-PK1 cells [7] = assay: MTT-assay; settings: 10 mg/mL RBV, after 5 h, found to be toxic
[8] = Pharmacokinetics of sodium fluorescein after intravenous bolus; settings: rats, 1 mg intravenous bolus
[9] = cited from earlier work; remark: listed apart in the source
HRP-PEG-liposomes = molecular target: T2, HRP-PEG-liposomes (UniProt P00433 31-338); assay: fluorescence microscopy of LLC-PK1 cells after 4 hours incubation
T2 sequence (looked up): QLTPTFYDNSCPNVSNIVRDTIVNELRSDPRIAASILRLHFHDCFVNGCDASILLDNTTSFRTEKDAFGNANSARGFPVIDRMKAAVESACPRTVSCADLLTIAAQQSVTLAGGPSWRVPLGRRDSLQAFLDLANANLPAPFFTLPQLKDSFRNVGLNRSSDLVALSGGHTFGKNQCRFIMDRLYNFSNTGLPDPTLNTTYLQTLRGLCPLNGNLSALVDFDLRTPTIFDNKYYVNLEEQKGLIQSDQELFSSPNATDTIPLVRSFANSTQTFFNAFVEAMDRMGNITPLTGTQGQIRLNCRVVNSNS

[10] = molecular target: T3, HRP-FITC (horseradish peroxidase labelled with FITC) (UniProt P00433 31-338); assay: uptake by LLC-PK1 cells for 2 h, fluorescence of the cell lysate; fluorescence microscopy also showed no signal
T3 construct: also called HRP-FITC conjugate
T3 sequence (looked up): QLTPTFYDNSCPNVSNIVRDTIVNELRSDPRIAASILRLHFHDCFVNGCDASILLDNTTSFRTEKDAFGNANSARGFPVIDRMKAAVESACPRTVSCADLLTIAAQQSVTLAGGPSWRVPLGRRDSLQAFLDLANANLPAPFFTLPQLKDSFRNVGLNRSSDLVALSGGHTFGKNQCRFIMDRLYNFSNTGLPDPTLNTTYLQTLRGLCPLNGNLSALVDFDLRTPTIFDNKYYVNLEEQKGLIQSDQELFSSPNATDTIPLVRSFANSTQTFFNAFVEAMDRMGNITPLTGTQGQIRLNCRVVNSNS

[11] = molecular target: T3, HRP-FITC (horseradish peroxidase …); assay: fluorescence microscopy of cells on coverslips
[12] = 500 mg of probenecid every six hours

CCOC(=O)C1=C[C@@H](OC(CC)CC)[C@H](NC(C)=O)[C@@H](N)C1 [Oseltamivir, (3R,4R,5S)-4-acetylamino-5-amino-3-(1-ethylpropoxy)-1-cyclohexene-1-carboxylic acid ethyl ester]
change of half-life with probenecid [1, 12]: doubled
change of peak plasma concentration (Cmax) with probenecid [1, 12]: doubled
increase of overall systemic exposure (AUC) with probenecid [1, 12]: 2.5 fold
(elimination) half-life ([1]; in vivo): 6 to 10 h
oral bioavailability [1]: 75%

CRM197-FITC conjugate (from UniProt P00588 33-567) (ligand)
cell uptake: CRM197-FITC in the cell lysate per mg cell protein after 2 hours (microgram per mg cell protein) [2]: 0.54

Nc1nc2c(ncn2COCCOP(=O)(O)OP(=O)(O)OP(=O)(O)O)c(=O)[nH]1 [Aciclo-GTP]
affinity to viral relative to cellular polymerase (viral DNA polymerase): approximately 100 times
half-life compared to GCV-TP in infected cells (CMV-infected cells): four- to five-fold shorter

Nc1nc(O)c2ncn(COC(CO)CO)c2n1 [ganciclovir]
half-life ([1]; depending on renal function): 2 to 6 h
elimination time in end-stage renal disease ([1]; end-stage renal disease): over 24 hours
absorption of the oral form, fasting ([1]; fasting): about 5%
concentration in the central nervous system relative to plasma level ([1]; in vivo): about 50 % of the plasma level
plasma drug eliminated unchanged in the urine ([1]; in vivo): About 90%
oral bioavailability [1]: approximately 5%
absorption of the oral form, with food ([1]; with food): about 8%

HRP-FITC: horseradish peroxidase (HRP) labelled with FITC as a control protein
conjugate found in the cell lysates [3]: No HRP-FITC was found
fluorescence signal / uptake in cells (LLC-PK1 cells [4]): No fluorescence signal was found
accumulation in tissues (brain, heart, lung, liver, spleen, kidney) [5]: not (or hardly) detectable in these tissues
plasma half-life [6]: 0.633 h

CC(=O)NC1C(NC(=N)N)C=C(C(=O)O)OC1C(O)C(O)CO (centres unmarked) [Zanamivir, 5-acetamido-4-guanidino-6-(1,2,3-trihydroxypropyl)-5,6-dihydro-4H-pyran-2-carboxylic acid]
(elimination) half-life ([1]; in vivo): 2.5 to 5.1 h
protein binding in plasma ([1]; in vivo): < 10%
oral bioavailability [1]: 2%
reduction of time to symptom resolution (influenza): 1.5 days

NC(=O)c1ncn([C@@H]2O[C@H](CO)[C@@H](O)[C@H]2O)n1 [RBV, 1-beta-D-ribofuranosyl-1,2,4-triazole-3-carboxamide]
EC50 (YFV): 12.3 ± 5.6 µg/mL (≈ 50.4 µM)
absorption from the GI tract with a fatty meal ([1]; fatty meal): about 75%
absorption from the GI tract ([1]; in vivo): about 45%
fraction of absorbed drug excreted into the urine unchanged ([1]; in vivo): About a third
mean half-life for multiple doses in the body ([1]; multiple doses): about 12 days
half-life after single dose ([1]; single dose): 0.5 h
cell viability (LLC-PK1 cells [7]): 60%

O=C([O-])c1ccccc1-c1c2ccc(=O)cc-2oc2cc([O-])ccc12.[Na+].[Na+] [sodium fluorescein]
fluorescence signal / uptake in cells (LLC-PK1 cells [4]): No fluorescence signal was found
AUC [8]: 13 microgram*min/ml
half-life [8]: 0.583 h

Nc1nc2c(ncn2COCCO)c(=O)[nH]1 [Aciclovir]
protein binding in plasma ([1]; in vivo): 30%
oral bioavailability [1]: 10-20%
time of peak plasma concentration ([1]; orally administered): 1 to 2 h
water solubility [9]: poorly water soluble

B1: diphtheria toxin receptor (DTR) expressed on LLC-PK1 cells (porcine kidney epithelial cells) (receptor, UniProt Q01580 63-148, looked up)
chain: DLEEADLDLLRADFSSKPQALATPSKEERGKRKKKGKGLGKKRDPCLRKYKDFCIHGECKYVKELRAPSCICHPGYHGERCHGLSL
notes: whole, on cells; also called HB-EGF
binding result (HRP-PEG-liposomes): no binding
binding result [10]: no binding

B2: diphtheria toxin receptor (DTR) on bovine brain capillary endothelial cells (BCEC) (receptor)
chain: DLEEANLDLFRAAFSSKPQALATPSKEERGKRKKKGKGLGKKRNPCLRRYKDFCIHGECKYVKELRVPTCICHPGYHGERCHGLSL
notes: whole, on cells; also called HB-EGF precursor
binding result [11]: no binding

B3: diphtheria toxin receptor (DTR) on human glioblastoma cells (receptor, UniProt Q99075 63-148, looked up)
chain: DLQEADLDLLRVTLSSKPQALATPNKEEHGKRKKKGKGLGKKRDPCLRKYKDFCIHGECKYVKELRAPSCICHPGYHGERCHGLSL
notes: as for B2
binding result [11]: no binding
